Experimental data reported in patent US4127687A, “Prevention of fouling of marine structures such as boat hulls” (Rohm and Haas Company, priority 1976, dated 1978).
Converted amounts (≈) assume the structure as drawn. Where two headings read alike, the source gives them in different places.

Key:
[1] = test system: weed; assay: Membrane Diffusion Raft Trials, weed control; assay type: in vivo, grass-like algal growth common in sea water; details: membrane test, average 15 to 16 weeks of immersion
In short: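 Field raft test in sea water: known quantity of compound in container sealed with membrane of known porosity, diffusing into surrounding water; panels at waterline (illuminated, aerated) and flats (poorly lit, deeper). Fouling settlement inspected over about 15-16 weeks average immersion; scored 0 none, + some, ++ effective.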

[2] = test system: barnacle; assay: Membrane Diffusion Raft Trials, barnacle control; assay type: in vivo, barnacles; details: membrane test, average 15 to 16 weeks of immersion
In short: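 Test compound held in a plastic container sealed by a porous membrane, diffusing into surrounding seawater on raft panels alongside standard poisons and a non-toxic control membrane. Settlement timed and quantified by regular inspection; scored 0 (none), + (some) or ++ (effective), averaging 15 to 16 weeks' immersion.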

[3] = Amount of toxicant remaining in the test container after membrane diffusion raft tests; assay type: physicochemical; parameters: key: 0: empty or trace; +: some; + +: ample; details: after completion of membrane diffusion raft tests
In short: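 Known amount of compound held in a cylindrical container sealed with a membrane of known porosity, fixed to a raft panel so toxicant diffuses into the surrounding water. Each panel carries 35 test compounds, 4 standard poisons and 1 non-toxic membrane control. After the trial, container contents inspected visually for remaining toxicant (0 = empty or trace).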

[4] = test system: Enteromorpha spores; assay: Laboratory toxicity test (Lab Bioassay) with Enteromorpha spores; assay type: in vivo; details: using Enteromorpha spores
Text: Standard laboratory toxicity tests use Enteromorpha spores (zoospores or gametes) but Ectocarpus spores and barnacle nauplii may also be used. During the spore tests additional information on the control of bacterial and diatom slimes becomes available since these organisms are unavoidably introduced with the spore inoculum.
More detailed laboratory toxicity tests on promising compounds determine LD50 values as percentage saturated solution.
^c Using Enteromorpha spores.

[5] = Water solubility by UV spectrophotometric method; assay type: physicochemical; details: water
Experimental: The water solubilities of several isothiazolones were determined by UV spectrophotometric measurements of saturated aqueous solution of each compound in comparison with measurement of solutions of carefully prepared known concentration as outlined in the following example.
DETERMINATION OF SOLUBILITY OF 5-CHLORO-2-(4-FLUOROPHENYL)-4-METHYL-3-ISOTHIAZOLONE OF EXAMPLE 115
A sample of 5-chloro-2-(4-fluorophenyl)-4-methyl-3-isothiazolone (0.0406 g., 1.67 × 10^-4 mole) was dissolved in 50 ml. of methanol. A 5 ml. aliquot of the solution was diluted to 1000 ml. with deionized water, providing a solution of 1.67 × 10^-5 moles/liter concentration. An ultraviolet spectrum of this solution was run using a 10 cm. cell. The absorbance (As) at the wave length of maximum absorption (279 nm.) was 1.208. The molar absorptivity, AM, was calculated from the relationship
where b and c are path length or cell thickness and concentration respectively. Thus, AM was [formula]
Another sample of the compound (0.3-0.5 g.) was stirred vigorously in 40 ml. of deionized water for approximately 72 hrs. to give a saturated solution. The mixture was filtered through very fine filter paper (Whatman No. 50) to remove all suspended solid. Small portions of the filtrate were diluted with water by various factors until an approximately mid-scale absorbance was obtained upon running an ultraviolet spectrum. Such an absorbance was obtained at a dilution of 10. The absorbance was 0.975 in a 10 cm. cell. Using the value for AM obtained earlier, in the equation

[6] = saturated solution, Table 1, read-out: Solubility by UV method

O=c1c(Br)c(Br)sn1Cc1ccc(Cl)cc1 [Example 99]
Weed Control [1]: + + | Barnacle Control [2]: + | Contents at the end of test (amount of toxicants remaining in the test container) [3]: + + | Lab Bioassay LD50 [4]: 0.01 percentage saturated solution | solubility [5, 6]: 1.7 µg/mL (≈ 4.43 µM)

O=c1c(Br)csn1Cc1ccc(Cl)cc1 [Example 53]
Weed Control [1]: + + | Barnacle Control [2]: + | Contents at the end of test (amount of toxicants remaining in the test container) [3]: + + | Lab Bioassay LD50 [4]: 0.1 percentage saturated solution | solubility [5, 6]: 18 µg/mL (≈ 59.1 µM)

O=c1c(Br)c(Br)sn1C1CCCCC1 [Example 98]
Weed Control [1]: + + | Barnacle Control [2]: 0 | Contents at the end of test (amount of toxicants remaining in the test container) [3]: + | Lab Bioassay LD50 [4]: 0.02 percentage saturated solution | solubility [5, 6]: 6.4 µg/mL (≈ 18.8 µM)

COc1ccc(-n2sc(Cl)cc2=O)cc1 [Example 38]
Weed Control [1]: + + | Barnacle Control [2]: + | Contents at the end of test (amount of toxicants remaining in the test container) [3]: + + | Lab Bioassay LD50 [4]: 0.025 percentage saturated solution | solubility [5, 6]: 300 µg/mL (≈ 1240 µM)

O=c1c(Cl)c(Cl)sn1Cc1ccccc1 [Example 71]
Weed Control [1]: + + | Barnacle Control [2]: + + | Contents at the end of test (amount of toxicants remaining in the test container) [3]: + | Lab Bioassay LD50 [4]: 0.25 percentage saturated solution | solubility [5, 6]: 52 µg/mL (≈ 200 µM)

O=c1c(Cl)c(Cl)sn1CCc1ccccc1 [Example 69]
Weed Control [1]: + + | Barnacle Control [2]: 0 | Contents at the end of test (amount of toxicants remaining in the test container) [3]: + + | Lab Bioassay LD50 [4]: 0.01 percentage saturated solution | solubility [5, 6]: 22 µg/mL (≈ 80.2 µM)

O=c1c(Cl)c(Cl)sn1C1CCCCC1 [Example 67]
Weed Control [1]: + + | Barnacle Control [2]: + + | Contents at the end of test (amount of toxicants remaining in the test container) [3]: + | Lab Bioassay LD50 [4]: 0.3 percentage saturated solution | solubility [5]: 48 µg/mL (≈ 190 µM)

Cc1c(Cl)sn(CCc2ccccc2)c1=O [Example 108]
Weed Control [1]: 0 | Barnacle Control [2]: + + | Contents at the end of test (amount of toxicants remaining in the test container) [3]: + | Lab Bioassay LD50 [4]: > 1 percentage saturated solution | solubility [5, 6]: 155 µg/mL (≈ 611 µM)

O=c1cc(Cl)sn1-c1ccc(Cl)cc1 [Example 34]
Weed Control [1]: + + | Barnacle Control [2]: + + | Contents at the end of test (amount of toxicants remaining in the test container) [3]: + + | Lab Bioassay LD50 [4]: 0.025 percentage saturated solution | solubility [5, 6]: 41 µg/mL (≈ 167 µM)

O=c1c(Br)c(Cl)sn1Cc1ccc(Cl)cc1 [Example 91]
Weed Control [1]: + + | Barnacle Control [2]: 0 | Contents at the end of test (amount of toxicants remaining in the test container) [3]: + | Lab Bioassay LD50 [4]: 0.02 percentage saturated solution | solubility [5, 6]: 3.3 µg/mL (≈ 9.73 µM)

Cc1c(Cl)cccc1-n1sc(Cl)c(Cl)c1=O [Example 78]
Weed Control [1]: + + | Barnacle Control [2]: 0 | Contents at the end of test (amount of toxicants remaining in the test container) [3]: + | Lab Bioassay LD50 [4]: 0.08 percentage saturated solution | solubility [5, 6]: 3.7 µg/mL (≈ 12.6 µM)

CCCCCCCCCCCCn1sc(Cl)cc1=O [Example 23]
Weed Control [1]: + + | Barnacle Control [2]: + | Contents at the end of test (amount of toxicants remaining in the test container) [3]: + | Lab Bioassay LD50 [4]: 0.02 percentage saturated solution | solubility [5, 6]: 0.7 to 1.5 µg/mL (≈ 2.3 to 4.94 µM)

Cc1c(Cl)sn(-c2ccc(I)cc2)c1=O [Example 117]
Weed Control [1]: + | Barnacle Control [2]: + + | Contents at the end of test (amount of toxicants remaining in the test container) [3]: + + | Lab Bioassay LD50 [4]: 0.2 percentage saturated solution

CC(C)(C)CC(C)(C)n1sc(Cl)c(Cl)c1=O [Example 59]
Weed Control [1]: + + | Barnacle Control [2]: + | Contents at the end of test (amount of toxicants remaining in the test container) [3]: + + | Lab Bioassay LD50 [4]: 0.006 percentage saturated solution | solubility [5, 6]: 38 µg/mL (≈ 135 µM)

COc1c(Cl)cccc1-n1sc(Cl)c(Cl)c1=O [Example 79]
Weed Control [1]: + + | Barnacle Control [2]: + | Contents at the end of test (amount of toxicants remaining in the test container) [3]: + + | Lab Bioassay LD50 [4]: 0.065 percentage saturated solution | Solubility by UV method: rapidly decomposes (remark) ([5]; Table 1 solubility column): rapidly decomposes

O=c1c(Cl)c(Cl)sn1-c1ccccc1 [Example 74]
Weed Control [1]: + + | Barnacle Control [2]: + + | Contents at the end of test (amount of toxicants remaining in the test container) [3]: + + | Lab Bioassay LD50 [4]: 0.03 percentage saturated solution | solubility [5, 6]: 8 µg/mL (≈ 32.5 µM)

CCCCCCCCCCCCCCCCCCn1sc(Cl)cc1=O [Example 26]
Weed Control [1]: 0 | Barnacle Control [2]: 0 | Contents at the end of test (amount of toxicants remaining in the test container) [3]: + + | Lab Bioassay LD50 [4]: 1.0 percentage saturated solution

O=c1cc(Cl)sn1-c1ccc(Oc2ccccc2)cc1 [Example 39]
Weed Control [1]: 0 | Barnacle Control [2]: + + | Contents at the end of test (amount of toxicants remaining in the test container) [3]: + + | Lab Bioassay LD50 [4]: 0.6 percentage saturated solution

O=c1cc(Cl)sn1Cc1ccc(Cl)cc1 [Example 32]
Weed Control [1]: + + | Barnacle Control [2]: + | Contents at the end of test (amount of toxicants remaining in the test container) [3]: + + | Lab Bioassay LD50 [4]: 0.018 percentage saturated solution | solubility [5, 6]: 70 µg/mL (≈ 269 µM)

O=c1cc(Cl)sn1-c1ccc(I)cc1 [Example 36]
Weed Control [1]: + + | Barnacle Control [2]: 0 | Contents at the end of test (amount of toxicants remaining in the test container) [3]: + + | Lab Bioassay LD50 [4]: 0.08 percentage saturated solution

CCCCC(CC)Cn1sc(Cl)c(Cl)c1=O (stereo not shown) [Example 58]
Weed Control [1]: + + | Barnacle Control [2]: + + | Contents at the end of test (amount of toxicants remaining in the test container) [3]: + | Lab Bioassay LD50 [4]: 0.0024 percentage saturated solution | solubility [5, 6]: 30 µg/mL (≈ 106 µM)

COc1c(Cl)cccc1-n1sc(Cl)cc1=O [Example 42]
Weed Control [1]: + + | Barnacle Control [2]: + | Contents at the end of test (amount of toxicants remaining in the test container) [3]: + + | Lab Bioassay LD50 [4]: 0.03 percentage saturated solution | solubility [5, 6]: 45 µg/mL (≈ 163 µM)

CCCCCCCCCCCCCCn1sccc1=O [Example 7]
Weed Control [1]: 0 | Barnacle Control [2]: 0 | Contents at the end of test (amount of toxicants remaining in the test container) [3]: + + | Lab Bioassay LD50 [4]: 0.1 percentage saturated solution

CCCCCCn1scc(Br)c1=O [Example 47]
Weed Control [1]: 0 | Barnacle Control [2]: + + | Contents at the end of test (amount of toxicants remaining in the test container) [3]: + | Lab Bioassay LD50 [4]: > 1 percentage saturated solution

O=c1cc(Cl)sn1-c1ccc(Br)cc1 [Example 35]
Weed Control [1]: + + | Barnacle Control [2]: 0 | Contents at the end of test (amount of toxicants remaining in the test container) [3]: + + | Lab Bioassay LD50 [4]: 0.22 percentage saturated solution
